Data taken from patent publication EP0973746B1, “SUBSTITUTED 3-CYANO QUINOLINES” (Wyeth Holdings Corporation, priority 1997, dated 1998).
In brackets after ≈: the same amount, converted by molar mass.

Assays:
[1] = system: HTB161; assay: Inhibition of cancer cell growth as measured by cell number, HTB161; type: cell-based; conditions: Homo sapiens, 48 h, read-out: IC50 HTB161
[2] = system: A2780DDP; assay: Inhibition of cancer cell growth as measured by cell number, A2780DDP; type: cell-based; conditions: Homo sapiens, 48 h, read-out: IC50 A2780DDP
[3] = system: LX1; assay: Inhibition of cancer cell growth as measured by cell number, LX1; type: cell-based; conditions: Homo sapiens, LX-1, 48 h, read-out: IC50 LX1
[4] = system: LNCAP; assay: Inhibition of cancer cell growth as measured by cell number, LNCAP; type: cell-based; conditions: Homo sapiens, 48 h, read-out: IC50 LNCAP
[5] = system: HCT15; assay: Inhibition of cancer cell growth as measured by cell number, HCT15; type: cell-based; conditions: Homo sapiens, HCT-15, 48 h, read-out: IC50 HCT15
[6] = system: SKBR3; assay: Inhibition of cancer cell growth as measured by cell number, SKBR3; type: cell-based, human; conditions: Homo sapiens, SK-BR-3, 48 h, read-out: IC50 SKBR3, cell number, Sulforhodamine B, 48 hours exposure; Table 7;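 also: SK-BR-3 cells were selected as a line overexpressing HER2/neu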
From the text: (§1) The cell lines were chosen since they overexpressed epidermal growth factor receptor (EGFR) (i.e. A431) or HER2/neu (SKBR3), or had little to no expression of the these receptors (SW620, LOX, MCF7).

[7] = system: A431; assay: Inhibition of cancer cell growth as measured by cell number, A431; type: cell-based, human; conditions: Homo sapiens, A-431, 48 h, read-out: IC50 A431, cell number, Sulforhodamine B, 48 hours exposure; Table 6;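 also: human A431 line, picked because it overexpresses epidermal growth factor receptor (EGFR)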
From the text: as §1

[8] = system: SW620; assay: Inhibition of cancer cell growth as measured by cell number, SW620; type: cell-based, human; conditions: Homo sapiens, SW-620, 48 h, read-out: IC50 SW620, cell number, Sulforhodamine B, 48 hours exposure; Table 4;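 also: SW620 was included as a cell line with little or no EGFR or HER2/neu expression, in contrast to receptor-overexpressing lines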
From the text: as §1

[9] = system: A549; assay: Inhibition of cancer cell growth as measured by cell number, A549; type: cell-based; conditions: Homo sapiens, A549, 48 h, read-out: IC50 A549
[10] = system: COLO205; assay: Inhibition of cancer cell growth as measured by cell number, COLO205; type: cell-based; conditions: Homo sapiens, COLO 205, 48 h, read-out: IC50 COLO205
[11] = system: MIP; assay: Inhibition of cancer cell growth as measured by cell number, MIP; type: cell-based; conditions: Homo sapiens; cell number, Sulforhodamine B, 48 hours exposure; Table 4; read-out: IC50 MIP
[12] = system: CX1; assay: Inhibition of cancer cell growth as measured by cell number, CX1; type: cell-based; conditions: Homo sapiens, CX-1, 48 h, read-out: IC50 CX1
[13] = system: LOX; assay: Inhibition of cancer cell growth as measured by cell number, LOX; type: cell-based, human; conditions: Homo sapiens, LOX, 48 h, read-out: IC50 LOX, cell number, Sulforhodamine B, 48 hours exposure; Table 6;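 also: LOX cells served as a line with low or absent EGFR and HER2/neu expression, in contrast to receptor-overexpressing lines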
From the text: as §1

[14] = molecular target: recombinant human MEK 1 (MAPKK) and recombinant human ERK2 (MAPK); assay: Mitogen Activated Protein Kinase (MAPK) assay, two component coupled MEK 1 / ERK2; type: biochemical; conditions: separate entries for the same compound = evaluated more than one time;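 also: MEK 1-activated ERK2 phosphorylates MBP or Myc peptide with 33P-ATP, filter capture and scintillation counting, inhibitor preincubated with ERK2 30 min at 0 °C, inhibition relative to uninhibited control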
[15] = system: A431; assay: Inhibition of cell growth by incorporation of [3H]-thymidine, A431; type: cell-based, human; conditions: Homo sapiens, A-431, read-out: IC50 A431
[16] = system: DU145; assay: Inhibition of cancer cell growth as measured by cell number, DU145; type: cell-based; conditions: Homo sapiens, DU-145, 48 h, read-out: IC50 DU145
[17] = system: HL60; assay: Inhibition of cancer cell growth as measured by cell number, HL60; type: cell-based; conditions: Homo sapiens, HL-60, 48 h, read-out: IC50 HL60
[18] = system: NEC; assay: Inhibition of cancer cell growth as measured by cell number, NEC; type: cell-based; conditions: Homo sapiens, 48 h, read-out: IC50 NEC
[19] = system: B7474; assay: Inhibition of cancer cell growth as measured by cell number, B7474; type: cell-based; conditions: Homo sapiens, 48 h, read-out: IC50 B7474
[20] = system: MCF7; assay: Inhibition of cancer cell growth as measured by cell number, MCF7; type: cell-based, human; conditions: Homo sapiens, MCF7, 48 h, read-out: IC50 MCF7, cell number, Sulforhodamine B, 48 hours exposure; Table 5;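 also: MCF7 was included as a line with little or no EGFR or HER2/neu expression, in contrast to the receptor-overexpressing lines of the panel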
From the text: as §1

[21] = system: T47D; assay: Inhibition of cancer cell growth as measured by cell number, T47D; type: cell-based; conditions: Homo sapiens, 48 h, read-out: IC50 T47D
[22] = system: CACO2; assay: Inhibition of cancer cell growth as measured by cell number, CACO2; type: cell-based; conditions: Homo sapiens, Caco-2, 48 h, read-out: IC50 CACO2
[23] = system: CCL228; assay: Inhibition of cancer cell growth as measured by cell number, CCL228; type: cell-based; conditions: Homo sapiens, 48 h, read-out: IC50 CCL228
[24] = system: PC3; assay: Inhibition of cancer cell growth as measured by cell number, PC3; type: cell-based; conditions: Homo sapiens, PC-3, 48 h, read-out: IC50 PC3
[25] = system: CCRF-CFM; assay: Inhibition of cancer cell growth as measured by cell number, CCRF-CFM; type: cell-based; conditions: Homo sapiens, 48 h, read-out: IC50 CCRF-CFM
[26] = system: A27805; assay: Inhibition of cancer cell growth as measured by cell number, A27805; type: cell-based; conditions: Homo sapiens, 48 h, read-out: IC50 A27805
[27] = system: SW948; assay: Inhibition of cancer cell growth as measured by cell number, SW948; type: cell-based; conditions: Homo sapiens, SW948, 48 h, read-out: IC50 SW948
[28] = system: LS174T; assay: Inhibition of cancer cell growth as measured by cell number, LS174T; type: cell-based; conditions: Homo sapiens, 48 h, read-out: IC50 LS174T

SMILES | IC50 [1] | IC50 [2] | IC50 [3] | IC50 [4] | IC50 [5] | IC50 [6] | IC50 [7] | IC50 [8] | IC50 [9] | IC50 [10] | IC50 [11] | IC50 [12] | IC50 [13] | IC50 [14] | IC50 [15] | IC50 [16] | IC50 [17] | IC50 [18] | IC50 [19] | IC50 [20] | also measured
N#Cc1cnc2ccc([N+](=O)[O-])cc2c1Nc1cccc(Br)c1 [Example 13, 4-[(3-Bromophenyl)amino]-6-nitro-3-quinolinecarbonitrile] | 97.1 µg/mL (≈ 263 µM) | 57 µg/mL (≈ 154 µM) | > 100 µg/mL | > 100 µg/mL | 100 µg/mL (≈ 271 µM) | 100 µg/mL (≈ 271 µM) | 91 µg/mL (≈ 246 µM) | 100 µg/mL (≈ 271 µM) | > 100 µg/mL | 45.8 µg/mL (≈ 124 µM) | 7.8 µg/mL (≈ 21.1 µM) | > 100 µg/mL | > 100 µg/mL | > 100 µM | 50 µM | 65.8 µg/mL (≈ 178 µM) | 70.2 µg/mL (≈ 190 µM) | > 100 µg/mL | 98.8 µg/mL (≈ 268 µM) | 65 µg/mL (≈ 176 µM) | IC50 [21]: 47.7 µg/mL (≈ 129 µM); IC50 [22]: 31.5 µg/mL (≈ 85.4 µM); IC50 [23]: > 100 µg/mL; IC50 [24]: > 100 µg/mL; IC50 [25]: > 100 µg/mL; IC50 [26]: 9.94 µg/mL (≈ 26.9 µM); IC50 [27]: > 100 µg/mL; IC50 [28]: 94 µg/mL (≈ 255 µM)
N#Cc1cnc2ccc(N)cc2c1Nc1cccc(Br)c1 [Example 14, 6-Amino-4-[(3-bromophenyl)amino]-3-quinolinecarbonitrile] | 1.79 µg/mL (≈ 5.29 µM) | 5.92 µg/mL (≈ 17.5 µM) | 69.6 µg/mL (≈ 205 µM) | 8.98 µg/mL (≈ 26.5 µM) | 6.63 µg/mL (≈ 19.5 µM) | 43.6 µg/mL (≈ 129 µM) | 1.5 µg/mL (≈ 4.42 µM) | 88.8 µg/mL (≈ 262 µM) | 7.68 µg/mL (≈ 22.7 µM) | > 100 µg/mL | 6.19 µg/mL (≈ 18.2 µM) | 8.9 µg/mL (≈ 26.2 µM) | 2.81 µg/mL (≈ 8.29 µM) | > 100 µM | 0.1 µM | 0.91 µg/mL (≈ 2.68 µM) | 4.04 µg/mL (≈ 11.9 µM) | 8.28 µg/mL (≈ 24.4 µM) | 20.6 µg/mL (≈ 60.6 µM) | 80.7 µg/mL (≈ 238 µM) | IC50 [21]: 7.39 µg/mL (≈ 21.8 µM); IC50 [22]: 0.989 µg/mL (≈ 2.91 µM); IC50 [23]: 39.4 µg/mL (≈ 116 µM); IC50 [24]: 41.2 µg/mL (≈ 122 µM); IC50 [25]: 7.6 µg/mL (≈ 22.4 µM); IC50 [26]: 3.59 µg/mL (≈ 10.6 µM); IC50 [27]: > 100 µg/mL; IC50 [28]: 39.3 µg/mL (≈ 116 µM)
